Measurements published in US7973063B2, “Methods for activating PPAR gamma-type receptors” (Galderma Research & Development, priority 2004, dated 2011).
Read-outs that look alike come from different tables or passages of the source.

How the values were obtained:
[1] = target: PPARγ; conditions: Table 1, PPARγ receptors; values described for the compounds of FR-2,812,876; read-out: KdApp in nM (PPARγ receptors), compounds according to Patent FR 2 812 876; cited from earlier work
[2] = target: T1, PPARγ (Homo sapiens, UniProt P37231); test: Crossed-curve PPAR transactivation assay (PPARγ); assay type: cell-based
T1 construct: PPARγ KdApp; other: HeLN cells stably transfected with Gal-hPPARγ and luciferase reporter; KdApp in nM (PPARγ receptors), compounds according to the present invention; Either is a handle for the test and no part of the key
T1 sequence (P37231 238-505 limits assumed): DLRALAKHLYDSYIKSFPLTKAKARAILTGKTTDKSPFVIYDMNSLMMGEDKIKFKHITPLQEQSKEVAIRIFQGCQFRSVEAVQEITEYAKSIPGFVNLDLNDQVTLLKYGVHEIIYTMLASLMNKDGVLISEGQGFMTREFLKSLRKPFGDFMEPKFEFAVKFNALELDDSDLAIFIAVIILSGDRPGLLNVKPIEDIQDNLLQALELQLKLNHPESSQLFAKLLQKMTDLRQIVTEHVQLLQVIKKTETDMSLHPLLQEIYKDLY
Description: (§1) Activation of the PPAR receptors by an agonist (activator) in HeLN cells leads to the expression of a reporter gene, luciferase, which, in the presence of a substrate, generates light. The modulation of the PPAR receptors is measured by quantifying the luminescence produced after incubation of the cells in the presence of a reference agonist. The ligands will displace the agonist from its site. The measurement of the activity is performed by quantifying the light produced. This measurement makes it possible to determine the modulatory activity of the compounds according to the invention by the determination of the constant which is the affinity of the molecule for the PPAR receptor. Since this value can fluctuate depending on the basal activity and the expression of the receptor, it is referred to as apparent Kd (KdApp in nM).
(§2) To determine this constant, “crossed curves” for the test product, against a reference agonist, are prepared using a 96-well plate: 10 concentrations of the test product plus a concentration 0 are arranged in a line, and 7 concentrations of the agonist plus a concentration 0 are arranged in a column. This is 88 measurement points for 1 product and 1 receptor. The remaining 8 wells are used for repeatability controls.
(§3) Measurements are also taken for total agonist controls with the same products.
(§4) The HeLN cell lines used are stable transfectants containing the plasmids ERE-βGlob-Luc-SV-Neo (reporter gene) and PPAR (α, δ, γ) Gal-hPPAR. These cells are seeded in 96-well plates at the rate of 10 000 cells per well in 100 μl of DMEM medium without phenol red and supplemented with 10% of defatted calf serum. The plates are then incubated for 16 hours at 37° C. and 7% CO2.
(§5) The various dilutions of the test products and of the reference ligand are added at the rate of 5 μl per well. The plates are subsequently incubated for 18 hours at 37° C. and 7% CO2. The culture medium is removed by turning over and 100 μl of a 1:1 PBS/luciferin mixture are added to each well. After 5 minutes, the plates are read using the luminescence reader.

[3] = target: T2, PPARα (Homo sapiens, UniProt Q07869); test: Crossed-curve PPAR transactivation assay (PPARα); assay type: cell-based; conditions: HeLN cells stably transfected with Gal-hPPARα and luciferase reporter; crossed curves vs reference agonist, Schild regression; read-out: PPARα KdApp
T2 construct: Either is a handle for the test and no part of the key
T2 sequence (Q07869 200-468 limits assumed): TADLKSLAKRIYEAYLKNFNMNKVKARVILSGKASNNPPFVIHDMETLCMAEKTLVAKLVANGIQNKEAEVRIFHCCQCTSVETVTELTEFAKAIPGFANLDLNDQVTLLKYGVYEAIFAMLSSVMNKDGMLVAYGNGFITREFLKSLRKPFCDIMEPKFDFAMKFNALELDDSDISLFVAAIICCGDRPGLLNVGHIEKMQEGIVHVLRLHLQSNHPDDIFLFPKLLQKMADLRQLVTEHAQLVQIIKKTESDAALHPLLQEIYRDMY
Description: as §1, §2, §3, §4, §5

[4] = target: T3, PPARδ (Homo sapiens, UniProt Q03181); test: Crossed-curve PPAR transactivation assay (PPARδ); assay type: cell-based; conditions: HeLN cells stably transfected with Gal-hPPARδ and luciferase reporter; crossed curves vs reference agonist, Schild regression; read-out: PPARδ KdApp
T3 construct: Either is a handle for the test and no part of the key
T3 sequence (Q03181 171-441 limits assumed): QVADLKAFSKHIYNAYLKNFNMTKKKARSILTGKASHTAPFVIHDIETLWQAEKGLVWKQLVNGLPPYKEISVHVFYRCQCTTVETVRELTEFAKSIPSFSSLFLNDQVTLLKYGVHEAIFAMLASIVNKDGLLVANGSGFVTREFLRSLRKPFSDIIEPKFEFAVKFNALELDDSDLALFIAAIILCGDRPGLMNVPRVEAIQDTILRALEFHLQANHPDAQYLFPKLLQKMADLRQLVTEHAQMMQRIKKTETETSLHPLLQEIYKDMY
Description: as §1, §2, §3, §4, §5

[5] = HeLN cells stably transfected with Gal-hPPARγ and luciferase reporter, crossed curves vs reference agonist, Schild regression, read-out: PPARγ KdApp

SMILES | Kd [2, 5] [nM] | Kd [3] [nM] | Kd [4] [nM] | Kd ([2]; Table 1, PPARγ receptors, read-out: KdApp in nM (PPARγ receptors), compounds according to the present invention) [nM] | Kd [1] [nM]
CCCCCCCCNC(=O)c1cccc(-c2ccc(CC3SC(=O)NC3=O)cc2)c1 (centres unmarked) [Example 23, N-Octyl-4′-(2,4-dioxothiazolidin-5-ylmethyl)biphenyl-3-carboxamide] | – | – | – | – | 2000
CCCCCCC(=O)N(C)Cc1cccc(-c2ccc(CC3SC(=O)NC3=O)cc2)c1 (centres unmarked) [Example 35, N-[4′-(2,4-Dioxothiazolidin-5-ylmethyl)biphenyl-3-ylmethyl]-N-methylheptanamide] | – | – | – | – | 1000
CN(Cc1cccc(-c2ccc(CC3SC(=O)NC3=O)cc2)c1)C(=O)C(C)(C)C (centres unmarked) [Example 22, N-[4′-(2,4-Dioxothiazolidin-5-ylmethyl)biphenyl-3-ylmethyl]-2,2,N-trimethylpropionamide] | – | – | – | – | 250
CCO[C@@H](Cc1ccc(-c2cccc(CN(C)C(=O)c3ccccc3)c2)cc1)C(=O)O [Example 13, (S)-2-Ethoxy-3-(3′-{[methyl(1-phenylmethanoyl)amino]methyl}biphenyl-4-yl)propionic acid] | – | – | – | – | 500
CCCCCCCCCC(=O)N(C)Cc1cccc(-c2ccc(CC3SC(=O)NC3=O)cc2)c1 (centres unmarked) [Example 32, N-[4′-(2,4-Dioxothiazolidin-5-ylmethyl)biphenyl-3-ylmethyl]-N-methyldecanamide] | – | – | – | – | 250

Further lines, with some results ahead:

Kd [2, 5] [nM] | Kd [3] [nM] | Kd [4] [nM] | Kd ([2]; Table 1, PPARγ receptors, read-out: KdApp in nM (PPARγ receptors), compounds according to the present invention) [nM] | SMILES | Kd [1] [nM]
0.03 | 250 | – | – | CCCCCCCNC(=O)N(C)c1cccc(-c2ccc(C[C@H](OCc3ccccc3)C(=O)O)cc2)c1 [Example 5, 2(S)-Benzyloxy-3-[3′-(3-heptyl-1-methylureido)biphenyl-4-yl]propanoic acid] | –
0.03 | 250 | 2000 | – | CCCCCNC(=O)N(C)c1cccc(-c2ccc(C[C@H](OCC)C(=O)O)cc2)c1 [Example 2, 2(S)-Ethoxy-3-[3′-(1-methyl-3-pentylureido)biphenyl-4-yl]propanoic acid] | –
0.025 | 30 | 500 | – | CCCCCCCNC(=O)N(C)c1cccc(-c2ccc(C[C@H](OCCC)C(=O)O)cc2)c1 [Example 4, 2-(S)-Propyloxy-3-[3′-(3-heptyl-1-methylureido)biphenyl-4-yl]propanoic acid] | –
< 1 | 30 | 250 | < 1 | CCCCCCCNC(=O)N(C)c1cccc(-c2ccc(C[C@H](OCC)C(=O)O)cc2)c1 [Example 1, 2(S)-Ethoxy-3-[3′-(3-heptyl-1-methylureido)biphenyl-4-yl]propanoic acid] | –
0.003 | 2 | 50 | – | C=CCO[C@@H](Cc1ccc(-c2cccc(N(C)C(=O)NCCCCCCC)c2)cc1)C(=O)O [Example 6, 2(S)-Allyloxy-3-[3′-(3-heptyl-1-methylureido)biphenyl-4-yl]propanoic acid] | –
